Test results from patent publication US5776928A (priority 1995, dated 1998).

Tests used:
[1] = test system: muscarinic cholinergic receptor; assay: pharmacological studies, muscarinic cholinergic receptor activity
[2] = detection of radiolabelled compound in saliva; assay type: in vivo
Protocol: For example, in the treatment of adult humans, dosages of from about 0.25 to 50 mg, preferably from 1 to 30 mg, and most preferably 1 to 20 mg per day may be used. A once a day dosage is normally sufficient, although divided doses may be administered. For treatment of a dyskinesia, a dose range of from 1 to 30 mg, preferably 1 to 20 mg per day is suitable.

[3] = test system: clinical subjects; assay: clinical observation of pupils in clinical subjects; assay type: in vivo
[4] = test system: rats; assay: in vivo observation in rats exposed to an overdose
[5] = test system: 5-HT1C receptor; assay: activity at the 5-HT1C receptor; conditions: anhydrous Form I

| SMILES | muscarinic cholinergic receptor activity [1] | detection in the saliva [2] | pupilary effect [3] | salivation [4] | activity at the 5-HT1C receptor [5] |
| --- | --- | --- | --- | --- | --- |
| Cc1cc2c(s1)Nc1ccccc1N=C2N1CCN(C)CC1 | has muscarinic cholinergic receptor activity | can be detected in the saliva | pupilary constriction rather than the expected pupilary dilation | significant salivation |  |
| Cc1cc2c(s1)Nc1ccccc1N=C2N1CCN(C)CC1 [anhydrous Form I compound] |  |  |  |  | active |
